Measured values as given in patent publication US7741327B2 (Hoffmann-La Roche Inc., priority 2008, dated 2010).

Legend:
C57B6 mice = experiment: Glucokinase activator in vivo screen: blood glucose lowering in mice after oral dosing; settings: Mus musculus, vs control, read-out: % gluc lowering @ 4 H; for change in vivo at 25 mg/kg: 4 h post 25 mg/kg oral dose
Protocol: Glucokinase Activator in vivo Screen Protocol in Lean and Diet Induced Obese Mice: Lean or Diet-Induced Obese (DIO) C57BL/6J mice were orally dosed via gavage with Glucokinase (GK) activator following a two hour fasting period. Blood glucose determinations were made at various (e.g. 0, 1, 2, 4 and 8 h post-oral gavage) times during the study.
C57Bl/6J mice were obtained from Jackson Laboratory (Bar Harbor, Me.) and were maintained in a light-dark cycle with lights on from 0600-1800 hr. For studies in lean mice, the mice were received at age ten weeks and given ad libitum access to control diet (LabDiet 5001 chow, PMI Nutrition, Brentwood, Mo.), and were at least age 11 weeks at the time of study. For studies in the DIO model, the mice were received at age five weeks and given ad libitum access to Bio-Serv F3282 High Fat Diet (Frenchtown, N.J.), and were at least age 16 weeks at the time of study. The experiments were conducted during the light phase of the light-dark cycle. Mice (n=6) are weighed and fasted for a two hour period prior to oral treatment. GK activators are formulated in Gelucire vehicle (Ethanol:Gelucire44/14:PEG400q.s. 4:66:30 v/w/v. For studies in lean mice, the mice were dosed orally with 5.0 μL per gram of body weight (i.e. 5 ml/kg×10.0 mg/ml formulation to equal a 50 mg/kg dose). For studies in DIO mice, the mice were dosed orally with 5.0 μL per gram of body weight (i.e. 5.0 ml/kg×5 mg/ml formulation to equal a 25 mg/kg dose). Immediately prior to dosing, a pre-dose (time zero) blood glucose reading was acquired by snipping off a small portion of the animal's tail and collecting 15 μL blood into a heparinized capillary tube for analysis. Following GK activator administration, additional blood glucose readings were taken at various time points post dose from the same tail wound. Results were interpreted by comparing the mean blood glucose values of vehicle treated mice with GK activator treated mice over the study period.
The Table below provides data for % glucose lowering of a representative number of compounds of the present invention vs control at 4 h post 25 or 30 mg/kg dose in C57B6 mice: […]

[1] = molecular target: T1, Recombinant human liver GK1 (GST-GK) (Homo sapiens, UniProt P35557); experiment: In vitro glucokinase activity (G6PDH-coupled NADH assay); format: biochemical; settings: 30° C., 5 mM D-glucose, 10% DMSO
T1 construct: made in house; host or cells: E. coli
T1 sequence (P35557 1-466 isoform P35557-2): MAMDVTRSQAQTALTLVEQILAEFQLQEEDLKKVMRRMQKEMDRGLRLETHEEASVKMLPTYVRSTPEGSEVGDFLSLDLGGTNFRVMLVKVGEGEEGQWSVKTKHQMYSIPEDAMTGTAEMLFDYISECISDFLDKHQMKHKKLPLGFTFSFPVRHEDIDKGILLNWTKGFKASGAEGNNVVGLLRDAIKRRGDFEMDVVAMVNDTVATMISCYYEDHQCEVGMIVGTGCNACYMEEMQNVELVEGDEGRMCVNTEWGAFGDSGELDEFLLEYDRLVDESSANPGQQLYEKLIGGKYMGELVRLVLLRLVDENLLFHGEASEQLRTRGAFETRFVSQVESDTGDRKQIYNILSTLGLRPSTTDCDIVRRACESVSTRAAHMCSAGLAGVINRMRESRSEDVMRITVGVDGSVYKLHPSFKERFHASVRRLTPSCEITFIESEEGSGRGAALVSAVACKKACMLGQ
Procedure, shortened: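 GST-tagged human liver GK1 from E. coli, assayed at 30° C in 25 mM Hepes pH 7.1 with 5 mM D-glucose, 1 mM ATP, 1.8 mM NAD and G6PDH coupling, 10% DMSO final; reaction started with enzyme after 10 min preincubation. NADH formation followed at OD340; SC1.5 is activator concentration giving 50% increase over DMSO control rate.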

Row | Structure (SMILES) | SC1.5 (concentration of activator that produced a 50% increase in the activity of GK) [1] [µM] | change in vivo at 25 mg/kg (C57B6 mice) [%] | change in vivo at 30 mg/kg (C57B6 mice; 4 h post 30 mg/kg oral dose) [%]
1 | CC(C)(O)Cn1ccc(NC(=O)[C@H](CC2CCCC2)N2CC(OC3CCCC3)=CC2=O)n1 [Example 16, (S)-3-Cyclopentyl-N-[1-(2-hydroxy-2-methyl-propyl)-1H-pyrazol-3-yl]-2-(4-cyclopentyloxy-2-oxo-2,5-dihydro-pyrrol-1-yl)-propionamide] | 0.649 | -36 | –
2 | CC(C)(O)Cn1ccc(NC(=O)[C@H](CC2CCCC2)N2CC(OC3CCCCC3)=CC2=O)n1 [Example 17, (S)-3-Cyclopentyl-N-[1-(2-hydroxy-2-methyl-propyl)-1H-pyrazol-3-yl]-2-(4-cyclohexyloxy-2-oxo-2,5-dihydro-pyrrol-1-yl)-propionamide] | 0.366 | -35.8 | –
3 | CC(C)(O)Cn1ccc(NC(=O)[C@H](CC2CCCC2)N2CC(OC3CCOCC3)=CC2=O)n1 [Example 18, (S)-3-Cyclopentyl-N-[1-(2-hydroxy-2-methyl-propyl)-1H-pyrazol-3-yl]-2-[2-oxo-4-(tetrahydro-pyran-4-yloxy)-2,5-dihydro-pyrrol-1-yl]-propionamide] | 3.982 | -10 | –
4 | CC(C)(O)Cn1ccc(NC(=O)[C@H](CC2CCCC2)N2CC(OC3CCC3)=CC2=O)n1 [Example 19, (S)-3-Cyclopentyl-N-[1-(2-hydroxy-2-methyl-propyl)-1H-pyrazol-3-yl]-2-(4-cyclobutoxy-2-oxo-2,5-dihydro-pyrrol-1-yl)-propionamide] | 1.991 | -29.5 | –
5 | COC(C)(C)Cn1ccc(NC(=O)[C@H](CC2CCCC2)N2CC(OC3CCCC3)=CC2=O)n1 [Example 21, (S)-3-Cyclopentyl-N-[1-(2-methoxy-2-methyl-propyl)-1H-pyrazol-3-yl]-2-(4-cyclopentyloxy-2-oxo-2,5-dihydro-pyrrol-1-yl)-propionamide] | 0.545 | -26.5 | –
6 | COc1ccccc1OC1=CC(=O)N([C@@H](CC2CCCC2)C(=O)Nc2nccs2)C1 [Example 26, (S)-3-Cyclopentyl-2-[4-(2-methoxy-phenoxy)-2-oxo-2,5-dihydro-pyrrol-1-yl]-N-thiazol-2-yl-propionamide] | 0.031 | -36.9 | –
7 | CC(C)C[C@@H](C(=O)Nc1cnccn1)N1CC(Oc2cccc(C(C)(C)O)c2F)=CC1=O [Example 247, (S)-2-{4-[2-Fluoro-3-(1-hydroxy-1-methyl-ethyl)-phenoxy]-2-oxo-2,5-dihydro-pyrrol-1-yl}-4-methyl-pentanoic acid pyrazin-2-ylamide] | 2.59 | – | –
8 | CCOc1ccc(F)c(OC2=CC(=O)N([C@@H](CC(C)C)C(=O)Nc3ccn(CC(C)(C)O)n3)C2)c1F [Example 260, (S)-2-[4-(3-Ethoxy-2,6-difluoro-phenoxy)-2-oxo-2,5-dihydro-pyrrol-1-yl]-4-methyl-pentanoic acid [1-(2-hydroxy-2-methyl-propyl)-1H-pyrazol-3-yl]-amide] | 0.024 | – | –

The next lines start with results.

Row | SC1.5 (concentration of activator that produced a 50% increase in the activity of GK) [1] [µM] | Structure (SMILES) | change in vivo at 25 mg/kg (C57B6 mice) [%] | change in vivo at 30 mg/kg (C57B6 mice; 4 h post 30 mg/kg oral dose) [%]
9 | 0.029 | COc1ccccc1OC1=CC(=O)N([C@@H](CC2CCCC2)C(=O)Nc2ccn(CC(C)(C)O)n2)C1 [Example 27, (S)-3-Cyclopentyl-N-[1-(2-hydroxy-2-methyl-propyl)-1H-pyrazol-3-yl]-2-[4-(2-methoxy-phenoxy)-2-oxo-2,5-dihydro-pyrrol-1-yl]-propionamide] | – | -52.2
10 | 0.197 | CC[C@@H](C)CC(C(=O)Nc1ccn(C[C@@H]2COC(C)(C)O2)n1)N1CC(Oc2ccccc2Cl)=CC1=O (stereo partly drawn) [Example 252, (R)-2-[4-(2-Chloro-phenoxy)-2-oxo-2,5-dihydro-pyrrol-1-yl]-4-methyl-hexanoic acid [1-((R)-2,2-dimethyl-[1,3]dioxolan-4-ylmethyl)-1H-pyrazol-3-yl]-amide] | – | –
11 | 0.113 | CC[C@@H](C)CC(C(=O)Nc1ccn(C[C@@H](O)CO)n1)N1CC(Oc2ccccc2Cl)=CC1=O (stereo partly drawn) [Example 253, (R)-2-[4-(2-Chloro-phenoxy)-2-oxo-2,5-dihydro-pyrrol-1-yl]-4-methyl-hexanoic acid [1-((R)-2,3-dihydroxy-propyl)-1H-pyrazol-3-yl]-amide] | – | –
12 | 0.048 | CC[C@@H](C)C[C@@H](C(=O)Nc1ccn(C[C@@H](O)CO)n1)N1CC(Oc2ccccc2Cl)=CC1=O [Example 255, (2S,4R)-2-[4-(2-Chloro-phenoxy)-2-oxo-2,5-dihydro-pyrrol-1-yl]-4-methyl-hexanoic acid [1-((R)-2,3-dihydroxy-propyl)-1H-pyrazol-3-yl]-amide] | – | –
13 | 0.044 | CCOc1ccc(F)c(OC2=CC(=O)N(C(CC3CCOCC3)C(=O)Nc3ccn(CC(C)(C)O)n3)C2)c1F (stereo not drawn) [Example 256, 2-[4-(3-Ethoxy-2,6-difluoro-phenoxy)-2-oxo-2,5-dihydro-pyrrol-1-yl]-N-[1-(2-hydroxy-2-methyl-propyl)-1H-pyrazol-3-yl]-3-(tetrahydro-pyran-4-yl)-propionamide] | – | –
14 | 0.984 | CCOc1cccc(OC2=CC(=O)N([C@@H](C[C@H](C)OCC)C(=O)Nc3ccn(CC(C)(C)O)n3)C2)c1F [Example 259, (2S,4S)-4-Ethoxy-2-[4-(3-ethoxy-2-fluoro-phenoxy)-2-oxo-2,5-dihydro-pyrrol-1-yl]-pentanoic acid [1-(2-hydroxy-2-methyl-propyl)-1H-pyrazol-3-yl]-amide] | – | –
15 | 0.073 | CC(C)(O)Cn1ccc(NC(=O)C(CC2CCOCC2)N2CC(Oc3ccccc3Br)=CC2=O)n1 (stereo not drawn) [Example 261, 2-[4-(2-Bromo-phenoxy)-2-oxo-2,5-dihydro-pyrrol-1-yl]-N-[1-(2-hydroxy-2-methyl-propyl)-1H-pyrazol-3-yl]-3-(tetrahydro-pyran-4-yl)-propionamide] | – | –
16 | 0.33 | CC(C)(O)Cn1ccc(NC(=O)[C@H](C[C@@H]2CCCCO2)N2CC(Oc3c(F)cccc3F)=CC2=O)n1 [Example 262, (S)-2-[4-(2,6-Difluoro-phenoxy)-2-oxo-2,5-dihydro-pyrrol-1-yl]-N-[1-(2-hydroxy-2-methyl-propyl)-1H-pyrazol-3-yl]-3-tetrahydro-pyran-2-yl-propionamide] | – | –
17 | 0.09 | O=C(Nc1ccn(C[C@@H](O)CO)n1)C(CC1C[C@@H](F)[C@@H](F)C1)N1CC(Oc2ccccc2Cl)=CC1=O (stereo partly drawn) [Example 263, 2-[4-(2-Chloro-phenoxy)-2-oxo-2,5-dihydro-pyrrol-1-yl]-3-((1R,3S,4R)-3,4-difluoro-cyclopentyl)-N-[1-((R)-2,3-dihydroxy-propyl)-1H-pyrazol-3-yl]-propionamide] | – | –
